From US20260103740A1, “METHOD AND APPARATUS FOR USING L[…] BEADS FOR ANTIMICROBIAL SUSCEPTIBILITY TESTING” (General Electric Company, priority 2022, published 2026)

Test system: E. coli
Settings: samples loaded by microfluidic manifold and manually (non-manifold control); antibiotic bead minus control bead Ct; FIG. 7
Experimental: The tetracycline-lyophilized reagent bead 68 was prepared such that each tetracycline-lyophilized reagent bead 68 when dissolved in 10 microliters of water yields a solution containing 0.1, 0.5, 2, and 10, micrograms of tetracycline/mL of water. To complete the trials, the embedded amplification bead 20 in the solid wax 28 was placed at the bottom of each of the amplification reaction vessels 24, and the antibiotic bead 22 was placed on top of the solid wax 28. […] Bacterial growth in the presence of the varying tetracycline concentrations mentioned above was conducted for a period of about three hours at an incubation temperature of 37° C. The temperature was then raised to above the melting point of the solid wax 28, and amplification was performed to assess the inhibitory effects of tetracycline on bacterial growth. The threshold value (Ct) of the amplification reactions were measured. […] The data was normalized by subtracting the mean Ct value for no-drug positive control from individual Ct values across the drug-containing incubations. […]
As shown in the graphical representation of lyophilized drug reagent bead testing 60, the tetracycline concentration 62 for both liquid tetracycline 66, the control group reagent, and tetracycline-lyophilized reagent beads 68 were measured in micrograms per milliliter (μg/mL), relative to the delta Ct values 64 produced by the concentration. […]

In the case of `CN(C)[C@@H]1C(O)=C(C(N)=O)C(=O)[C@@]2(O)C(O)=C3C(=O)c4c(O)cccc4[C@@](C)(O)[C@H]3C[C@@H]12.Cl` [tetracycline, Tetracycline hydrochloride], the “growth inhibition (delta Ct values versus tetracycline concentration)” value is reported as “demonstrated growth inhibition at the same concentrations”.
